Measurements reported in publication PMC10812557, “Progressive Design of a Ranatuerin-2 Peptide from Amolops wuyiensis: Enhancement of Bioactivity and In Vivo Efficacy” (Antibiotics, 2023).
Like-named read-outs stand apart in the source and are kept apart here. Bridge positions count the residues as written; N and C are the ends. Peptide text beside a SMILES is read from it.

How the values were obtained:
[1] = tested on: P. aeruginosa (ATCC 9027); type: cell-based, Pseudomonas aeruginosa
Description: (§1) As a previous study described in detail, the ability of R2AW and its analogues to inhibit and eradicate the formation of biofilm was investigated. The MBIC is the lowest concentration which inhibits the formation of biofilm. The MBEC is the minimum concentration that eradicates biofilm. Six bacterial strains were used, as described above. Briefly, the bacteria were cultured and then diluted to 5 × 10^5 CFU/mL. In MBIC assays, 1 μL of each concentration of R2AW and its analogues (ranging from 512 × 10^2 μM to 100 μM) was mixed with 99 μL of diluted bacterial suspension in a 96-well plate for 16-20 h at 37 °C. As for MBEC assays, 100 μL of cultured bacteria were seeded in a 96-well plate and incubated on the shaking incubator at 37 °C overnight for biofilm formation. Subsequently, each well was rinsed twice with 100 μL sterile PBS to remove planktonic cells, and then replaced with 100 μL of each concentration (ranging from 512 μM to 1 μM) of peptides. After 24 h incubation, the biofilm was washed twice with 100 μL of PBS and fixed with methanol. Next, the same volume of 0.1% crystal violet solution (Sigma-Aldrich, Gillingham, UK) was added to each well to stain the biofilm. After that, 100 μL of 30% of acetic acid (Sigma-Aldrich, Gillingham, UK) was transferred to each well for dissolution. The solutions were transferred into a new 96-well plate and the absorbances of wells was monitored using a Synergy HT plate reader set to 595 nm.

MRSA (NCTC 12493) [2] = type: cell-based, methicillin-resistant Staphylococcus aureus; conditions: NCTC 12493
Description: as §1

U251MG = type: cell-based, human; conditions: 24 h
Description: (§2) Five human cancer cell lines of non-small-cell lung cancer H838, human prostate carcinoma PC-3, human neuronal glioblastoma U251MG, human breast cancer cell MCF-7, and colorectal carcinoma HCT116 were used to detect the antiproliferative abilities of R2AW and its five analogues. According to the procedures in a previous article, cells (8000 cells/well) were seeded into the 96-well tissue culture plates and incubated at 37 °C with 5% CO2 overnight. The solutions of R2AW and its analogues at concentrations of 10^−4 M to 10^−9 M were prepared in the serum-free medium. Next, cells in each well were treated with 100 μL of each peptide solution for 24 h. Subsequently, 10 μL of 5 mg/mL MTT (3-(4, 5-Dimethylthiazol-2-yl-)-2, 5-Diphehyltetrazolium Bromide) was added to each well followed by 37 °C incubation for 2 h. After that, the liquid in each well was removed and 100 μL of DMSO was added to dissolve the purple formazan. The plate was placed on a shaking incubator for 10 min, and the absorbance was detected at 550 nm using a Synergy HT plate reader (Biotech, Minneapolis, MN, USA).

PC-3 = type: cell-based, human; conditions: 24 h
Description: as §2

H838 = type: cell-based, human; conditions: 24 h
Description: as §2

MCF-7 = type: cell-based, human; conditions: 24 h
Description: as §2

HCT116 = type: cell-based, human; conditions: 24 h
Description: as §2

S. aureus (NCTC 10788) [3] = type: cell-based, Staphylococcus aureus
Description: as §1

E. faecium (NTCC 12697) [4] = type: cell-based
Description: as §1

[5] = tested on: five human cancer cell lines; type: cell-based; conditions: 24 h
Description: as §2

S. aureus (NCTC 10788) [6] = assay: microbe, parasite or virus in culture; type: cell-based
Text: (§3) The MIC and MBC assays were used to assess the inhibitory activities of all 5 analogues of R2AW on the growth of planktonic microorganisms. The MIC is the lowest concentration that prevents the viable growth of bacteria. The MBC is the lowest concentration that results in bacterial death. Six microorganisms were used to detect the antimicrobial activity of peptides, including Gram-positive bacteria S. aureus (NCTC 10788), MRSA (NCTC 12493), Enterococcus faecalis (E. faecalis) (NCTC 12697), Gram-negative bacteria E. coli […], Klebsiella pneumoniae (K. pneumoniae) (ATCC 43816), and Pseudomonas aeruginosa (P. aeruginosa) (ATCC 9027). According to the assay described previously, the microorganisms were inoculated at 37 °C overnight and diluted to 5 × 10^5 CFU/mL after reaching the logarithmic growth period. The peptide stock solution at the concentration of 512 × 10^2 μM was prepared and diluted to 100 μM by a 2-fold dilution. One μL of each concentration of peptide solution was incubated with 99 μL of bacterial subculture in the 96-well plate for 18 h at 37 °C. The absorbance was determined at a wavelength of 550 nm using a Synergy HT plate reader (Bio Tek, Washington, DC, USA). […] As for those wells that were clearly visible, 20 μL of the solution was dropped onto the Mueller Hinton agar (MHA) dish and then incubated at 37 °C overnight. The lowest concentration with no colony growth was determined as the MBC.

MRSA (NCTC 12493) [7] = assay: microbe, parasite or virus in culture; type: cell-based; conditions: MRSA (NCTC 12493)
Text: as §3

E. faecium (NTCC 12697) [8] = assay: microbe, parasite or virus in culture; type: cell-based
Text: as §3

[9] = tested on: K. pneumoniae (ATCC 43816); type: cell-based, Klebsiella pneumoniae
Description: as §1

[10] = tested on: P. aeruginosa (ATCC 9027); type: cell-based
Text: as §3

[11] = tested on: K. pneumoniae (ATCC 43816); type: cell-based
Text: as §3

E. coli (ATCC 8739) [12] = type: cell-based
Text: as §3

E. coli (ATCC 8739) [13] = type: cell-based, Escherichia coli
Description: as §1

CC[C@H](C)[C@@H]1NC(=O)[C@H](CCCCN)NC(=O)[C@@H](NC(=O)[C@H](CCCCN)NC(=O)[C@H](CC(C)C)NC(=O)[C@H](CCCCN)NC(=O)[C@H](CC(=O)O)NC(=O)[C@H](CC(C)C)NC(=O)[C@H](CC(C)C)NC(=O)[C@@H](NC(=O)[C@H](C)NC(=O)[C@H](C)NC(=O)[C@@H](NC(=O)[C@H](CC(N)=O)NC(=O)[C@H](CCCCN)NC(=O)[C@H](C)NC(=O)[C@@H](NC(=O)[C@H](CC(N)=O)NC(=O)[C@H](CCCCN)NC(=O)[C@H](C)NC(=O)[C@@H](NC(=O)[C@H](CC(=O)O)NC(=O)[C@H](CCSC)NC(=O)[C@H](Cc2ccccc2)NC(=O)CN)[C@@H](C)O)C(C)C)C(C)C)[C@@H](C)O)CSSC[C@@H](C(=O)O)NC(=O)CNC(=O)CNC(=O)[C@H]([C@@H](C)O)NC1=O [R2AW] (H-GFMDTAKNVAKNVAATLLDKLKCKITGGC-OH; disulfide 23-29) was tested. Which MBEC [1] did it give?
Its MBEC is greater than 512 µM.

What about the MBIC [1] of the same molecule?
The MBIC was greater than 512 µM.

And the MBEC (MRSA (NCTC 12493) [2])?
Its MBEC is greater than 512 µM.

What about the MBIC (MRSA (NCTC 12493) [2]) of the same molecule?
Its MBIC is 256 µM.

And the IC50 (U251MG)?
The IC50 was 30.8 µM.

And the IC50 (PC-3)?
Its IC50 is 5.09 µM.

What about the IC50 (H838) of the same molecule?
The IC50 was 10.8 µM.

And the IC50 (MCF-7)?
The IC50 was 33.2 µM.

What about the IC50 (HCT116) of the same molecule?
The IC50 was 10.8 µM.

What about the MBEC (S. aureus (NCTC 10788) [3]) of the same molecule?
The MBEC was greater than 512 µM.

And the MBIC (S. aureus (NCTC 10788) [3])?
The MBIC was 128 µM.

What about the MBEC (E. faecium (NTCC 12697) [4]) of the same molecule?
The MBEC was greater than 512 µM.

And the MBIC (E. faecium (NTCC 12697) [4])?
The MBIC was greater than 512 µM.

What about the IC50 [5] of the same molecule?
The IC50 was 5.09 to 33.2 µM.

And the MBC (S. aureus (NCTC 10788) [6]; NCTC 10788, 18 h)?
The MBC was 193 µg/mL.

What about the MIC (S. aureus (NCTC 10788) [6]; NCTC 10788, 18 h) of the same molecule?
Its MIC is 32 µM.

And the MBC (MRSA (NCTC 12493) [7])?
Its MBC is 1541 µg/mL.

And the MIC (MRSA (NCTC 12493) [7])?
Its MIC is 770 µg/mL.

And the MBC (E. faecium (NTCC 12697) [8]; NTCC 12697, 18 h)?
The MBC was 771 µg/mL.

And the MIC (E. faecium (NTCC 12697) [8]; NTCC 12697, 18 h)?
The MIC was 770 µg/mL.

What about the MBEC [9] of the same molecule?
Its MBEC is 512/>512 µM.

And the MBIC [9]?
Its MBIC is 512/>512 µM.

What about the MBC ([10]; ATCC 9027, 18 h) of the same molecule?
The MBC was 1541 µg/mL.

And the MIC ([10]; ATCC 9027, 18 h)?
The MIC was 385 µg/mL.

What about the MBC ([11]; ATCC 43816, 18 h) of the same molecule?
Its MBC is 771 µg/mL.

What about the MIC ([11]; ATCC 43816, 18 h) of the same molecule?
Its MIC is 385 µg/mL.

What about the MBC (E. coli (ATCC 8739) [12]; ATCC 8739, 18 h) of the same molecule?
Its MBC is 193 µg/mL.

What about the MIC (E. coli (ATCC 8739) [12]; ATCC 8739, 18 h) of the same molecule?
The MIC was 32 µM.

What about the MBEC (E. coli (ATCC 8739) [13]) of the same molecule?
Its MBEC is 512 µM.

What about the MBIC (E. coli (ATCC 8739) [13]) of the same molecule?
Its MBIC is 128 µM.

With CC[C@H](C)[C@H](NC(=O)CN)C(=O)NCC(=O)N[C@@H](C)C(=O)N[C@H](C(=O)N[C@@H](CC(C)C)C(=O)N[C@@H](CCCCN)C(=O)N[C@H](C(=O)N[C@@H](CC(C)C)C(=O)N[C@H](C(=O)N[C@H](C(=O)NCC(=O)N[C@@H](CC(C)C)C(=O)N1CCC[C@H]1C(=O)N[C@@H](C)C(=O)N[C@@H](CC(C)C)C(=O)N[C@H](C(=O)N[C@@H](CO)C(=O)N[C@@H](Cc1c[nH]c2ccccc12)C(=O)N[C@H](C(=O)N[C@@H](CCCCN)C(=O)N[C@@H](CCCNC(=N)N)C(=O)N[C@@H](CCCCN)C(=O)N[C@@H](CCCNC(=N)N)C(=O)N[C@@H](CCC(N)=O)C(=O)N[C@@H](CCC(N)=O)C(N)=O)[C@@H](C)CC)[C@@H](C)CC)[C@@H](C)O)[C@@H](C)O)C(C)C)C(C)C [Melittin, reference compound] as the molecule, how does the MBC (S. aureus (NCTC 10788) [6]; S. aureus (NCTC 10788)) read?
Its MBC is 2 µM.

And the MBC (MRSA (NCTC 12493) [7])?
Its MBC is 2 µM.

And the MBC (E. faecium (NTCC 12697) [8]; E. faecium (NTCC 12697))?
Its MBC is 2 µM.

And the MIC (E. faecium (NTCC 12697) [8]; E. faecium (NTCC 12697))?
The MIC was 2 µM.

What about the MBC ([10]; P. aeruginosa (ATCC 9027)) of the same molecule?
Its MBC is 32 µM.

And the MBC ([11]; K. pneumoniae (ATCC 43816))?
The MBC was 32 µM.

What about the MIC ([11]; K. pneumoniae (ATCC 43816)) of the same molecule?
Its MIC is 32 µM.

And the MBC (E. coli (ATCC 8739) [12]; E. coli (ATCC 8739))?
Its MBC is 4 µM.
